The values that follow come from US12552825B2 (Zikani Therapeutics, Inc., priority 2019, dated 2026).

Values after ≈ are worked out from the molar mass of the structure shown. Where only a bound is given, the exact number is not on record here.

Common to all, as to type: cell-based
Assay [1] concerns S. aureus MP-12. Kind of assay: microbe, parasite or virus in culture. To be noted: Staphylococcus aureus, MP12, read-out: MIC S. aureus MP-12.
For assay [2], the system named is E. coli MP-4. The experiment in a line: MIC determination by CLSI broth dilution, E. coli MP-4. To be noted: Escherichia coli, MP4, CLSI broth dilution; strain MP-4. For orientation: Dilution methods test growth across graded concentrations, often in twofold steps.
Assay [3] has as its system K. pneumoniae MP-648. Kind of assay: MIC determination by CLSI broth dilution, K. pneumoniae MP-648. To be noted: Klebsiella pneumoniae, MP648, CLSI broth dilution; strain MP-648.
The subject of assay [4] is P. aeruginosa MP-3. The experiment in a line: MIC determination by CLSI broth dilution, P. aeruginosa MP-3. To be noted: Pseudomonas aeruginosa, MP3, strain MP-3.
Assay [5] relates to A. baumannii MP-15. The experiment in a line: MIC determination by CLSI broth dilution, A. baumannii MP-15. To be noted: Acinetobacter baumannii, MP15, strain MP-15, read-out: MIC A. baumanii MP-15.
For assay [6], the system named is K. pneumoniae MP-546. The experiment in a line: MIC determination by CLSI broth dilution, K. pneumoniae MP-546. To be noted: Klebsiella pneumoniae, MP546, CLSI broth dilution; strain MP-546.

Regarding `CCN1C[C@H](C)C[C@@](C)(OC)[C@H](O[C@@H]2O[C@H](C)C[C@H](N(C)C)[C@H]2O)[C@@H](C)C(=O)C(C)(C)C(=O)OC[C@H]1CC1CCN(CCO)CC1` [Compound 169, (3R,6R,8R,9R,10R)-9-(((2S,3R,4S,6R)-4-(Dimethylamino)-3-hydroxy-6-methyltetrahydro-2H-pyran-2-yl)oxy)-4-ethyl-3-((1-(2-hydroxyethyl)piperidin-4-yl)methyl)-8-methoxy-6,8,10,12,12-pentamethyl-1-oxa-4-azacyclotridecane-11,13-dione], the MIC in assay [1] is 4 to 32 mg/L (≈ 6.1 to 48.8 µM); in assay [2], less than 4 mg/L; in assay [3], 4 to 32 mg/L (≈ 6.1 to 48.8 µM); in assay [4], more than 32 mg/L; in assay [5] it was more than 32 mg/L.

Regarding `CCN1CCN(C[C@H]2COC(=O)C(C)(C)C(=O)[C@H](C)[C@@H](O[C@@H]3O[C@H](C)C[C@H](N(C)C)[C@H]3O)[C@](C)(OC)C[C@@H](C)CN2CC)CC1` [Compound 158, (3S,6R,8R,9R,10R)-9-(((2S,3R,4S,6R)-4-(Dimethylamino)-3-hydroxy-6-methyltetrahydro-2H-pyran-2-yl)oxy)-4-ethyl-3-((4-ethylpiperazin-1-yl)methyl)-8-methoxy-6,8,10,12,12-pentamethyl-1-oxa-4-azacyclotridecane-11,13-dione], the MIC in assay [1] was 4 to 32 mg/L (≈ 6.24 to 49.9 µM); in assay [2], less than 4 mg/L; in assay [3] it was 4 to 32 mg/L (≈ 6.24 to 49.9 µM); in assay [4], more than 32 mg/L; in assay [5], more than 32 mg/L.

On to `CCN(C)CCC[C@H]1COC(=O)C(C)(C)C(=O)[C@H](C)[C@@H](O[C@@H]2O[C@H](C)C[C@H](N(C)C)[C@H]2O)[C@](C)(OC)C[C@@H](C)CN1C` [Compound 20, (3S,6R,8R,9R,10R)-9-(((2S,3R,4S,6R)-4-(dimethylamino)-3-hydroxy-6-methyltetrahydro-2H-pyran-2-yl)oxy)-3-(3-(ethyl(methyl)amino)propyl)-8-methoxy-4,6,8,10,12,12-hexamethyl-1-oxa-4-azacyclotridecane-11,13-dione], for which the MIC in assay [1] was 4 to 32 mg/L (≈ 6.67 to 53.3 µM); in assay [2] it was less than 4 mg/L; in assay [6], less than 4 mg/L; in assay [4], more than 32 mg/L; in assay [5], more than 32 mg/L.

As for `CCN(CC)CCC[C@H]1COC(=O)C(C)(C)C(=O)[C@H](C)[C@@H](O[C@@H]2O[C@H](C)C[C@H](N(C)C)[C@H]2O)[C@](C)(OC)C[C@@H](C)CN1C` [Compound 19, (3S,6R,8R,9R,10R)-3-(3-(diethylamino)propyl)-9-(((2S,3R,4S,6R)-4-(dimethylamino)-3-hydroxy-6-methyltetrahydro-2H-pyran-2-yl)oxy)-8-methoxy-4,6,8,10,12,12-hexamethyl-1-oxa-4-azacyclotridecane-11,13-dione], the MIC in assay [1] is 4 to 32 mg/L (≈ 6.52 to 52.1 µM); in assay [2], less than 4 mg/L; in assay [6] it was less than 4 mg/L; in assay [4] it was more than 32 mg/L; in assay [5] it was more than 32 mg/L.

`CCCN1CCC(C[C@H]2COC(=O)C(C)(C)C(=O)[C@H](C)[C@@H](O[C@@H]3O[C@H](C)C[C@H](N(C)C)[C@H]3O)[C@](C)(OC)C[C@@H](C)CN2C)CC1` [Compound 41]: the MIC was more than 32 mg/L in assay [1]; 4 to 32 mg/L (≈ 6.25 to 50 µM) in assay [2]; 4 to 32 mg/L (≈ 6.25 to 50 µM) in assay [6]; more than 32 mg/L in assay [4]; more than 32 mg/L in assay [5].

As to `CO[C@]1(C)C[C@@H](C)CN(C)[C@@H](CN2CCN(C(=O)C(F)(F)F)CC2)[C@H](C)OC(=O)C(C)(C)C(=O)[C@H](C)[C@H]1O[C@@H]1O[C@H](C)C[C@H](N(C)C)[C@H]1O` [Compound 109, (2S,3S,6R,8R,9R,10R)-9-(((2S,3R,4S,6R)-4-(dimethylamino)-3-hydroxy-6-methyltetrahydro-2H-pyran-2-yl)oxy)-8-methoxy-2,4,6,8,10,12,12-heptamethyl-3-((4-(2,2,2-trifluoroacetyl)piperazin-1-yl)methyl)-1-oxa-4-azacyclotridecane-11,13-dione], the MIC in assay [1] is 4 to 32 mg/L (≈ 5.64 to 45.1 µM); in assay [2] it was 4 to 32 mg/L (≈ 5.64 to 45.1 µM); in assay [6], more than 32 mg/L; in assay [4] it was more than 32 mg/L; in assay [5], more than 32 mg/L.

In the case of `CO[C@]1(C)C[C@@H](C)CN(C)[C@@H](C(=O)N2CCN(C)CC2)[C@H](C)OC(=O)C(C)(C)C(=O)[C@H](C)[C@H]1O[C@@H]1O[C@H](C)C[C@H](N(C)C)[C@H]1O` [Compound 97, (2S,3R,6R,8R,9R,10R)-9-(((2S,3R,4S,6R)-4-(dimethylamino)-3-hydroxy-6-methyltetrahydro-2H-pyran-2-yl)oxy)-8-methoxy-2,4,6,8,10,12,12-heptamethyl-3-(4-methylpiperazine-1-carbonyl)-1-oxa-4-azacyclotridecane-11,13-dione], the MIC in assay [1], in assay [2], in assay [6], in assay [4] and in assay [5] was more than 32 mg/L throughout.

Take `CO[C@]1(C)C[C@@H](C)CN(C)[C@@H](CN2CCN(S(=O)(=O)N(C)C)CC2)[C@H](C)OC(=O)C(C)(C)C(=O)[C@H](C)[C@H]1O[C@@H]1O[C@H](C)C[C@H](N(C)C)[C@H]1O` [Compound 142, 4-(((2S,3S,6R,8R,9R,10R)-9-(((2S,3R,4S,6R)-4-(dimethylamino)-3-hydroxy-6-methyltetrahydro-2H-pyran-2-yl)oxy)-8-methoxy-2,4,6,8,10,12,12-heptamethyl-11,13-dioxo-1-oxa-4-azacyclotridecan-3-yl)methyl)-N,N-dimethylpiperazine-1-sulfonamide]: the MIC in assay [1] was 4 to 32 mg/L (≈ 5.56 to 44.4 µM); in assay [2], more than 32 mg/L; in assay [6] it was more than 32 mg/L; in assay [4], more than 32 mg/L; in assay [5], more than 32 mg/L.

As to `CO[C@]1(C)C[C@@H](C)CN(C)[C@H](CC2CCN(CC[C@@H](C)CCC=C(C)C)CC2)[C@@H](C)OC(=O)C(C)(C)C(=O)[C@H](C)[C@H]1O[C@@H]1O[C@H](C)C[C@H](N(C)C)[C@H]1O` [Compound 40], the MIC is 4 to 32 mg/L (≈ 5.33 to 42.7 µM) in assay [1]; less than 4 mg/L in assay [2]; 4 to 32 mg/L (≈ 5.33 to 42.7 µM) in assay [6]; more than 32 mg/L in assay [4]; 4 to 32 mg/L (≈ 5.33 to 42.7 µM) in assay [5].

In the case of `CO[C@]1(C)C[C@@H](C)CN(C)[C@H](CC2CCN(CC(C)(C)C)CC2)COC(=O)C(C)(C)C(=O)[C@H](C)[C@H]1O[C@@H]1O[C@H](C)C[C@H](N(C)C)[C@H]1O` [Compound 54], the MIC was 4 to 32 mg/L (≈ 5.99 to 47.9 µM) in assay [1]; less than 4 mg/L in assay [2]; less than 4 mg/L in assay [6]; more than 32 mg/L in assay [4]; more than 32 mg/L in assay [5].

As to `CCCN1CCC(C[C@H]2N(C)C[C@H](C)C[C@@](C)(OC)[C@H](O[C@@H]3O[C@H](C)C[C@H](N(C)C)[C@H]3O)[C@@H](C)C(=O)C(C)(C)C(=O)OC2(C)C)CC1` [Compound 46], the MIC in assay [1] was 4 to 32 mg/L (≈ 5.99 to 47.9 µM); in assay [2], less than 4 mg/L; in assay [6], less than 4 mg/L; in assay [4], more than 32 mg/L; in assay [5], more than 32 mg/L.

With `CO[C@]1(C)C[C@@H](C)CN(C)[C@@H](CN2CCN(C(C)=O)CC2)[C@H](C)OC(=O)C(C)(C)C(=O)[C@H](C)[C@H]1O[C@@H]1O[C@H](C)C[C@H](N(C)C)[C@H]1O` [Compound 135, (2S,3S,6R,8R,9R,10R)-3-((4-acetylpiperazin-1-yl)methyl)-9-(((2S,3R,4S,6R)-4-(dimethylamino)-3-hydroxy-6-methyltetrahydro-2H-pyran-2-yl)oxy)-8-methoxy-2,4,6,8,10,12,12-heptamethyl-1-oxa-4-azacyclotridecane-11,13-dione], the MIC is 4 to 32 mg/L (≈ 6.11 to 48.9 µM) in assay [1]; more than 32 mg/L in assay [2]; more than 32 mg/L in assay [6]; more than 32 mg/L in assay [4]; more than 32 mg/L in assay [5].
